Results: ChEMBL document CHEMBL3352461, “Discovery and optimization of 5-fluoro-4,6-dialkoxypyrimidine GPR119 agonists” (Bioorg Med Chem Lett, 2014)

Legend:
[1] = molecular target: T1, Glucose-dependent insulinotropic receptor (Homo sapiens) (UniProt Q8TDV5); assay: […] of human GPR119 activity by homogeneous time resolved fluorescence cyclase (cAMP) assay relative to AR231453; format: functional
T1 sequence (whole entry): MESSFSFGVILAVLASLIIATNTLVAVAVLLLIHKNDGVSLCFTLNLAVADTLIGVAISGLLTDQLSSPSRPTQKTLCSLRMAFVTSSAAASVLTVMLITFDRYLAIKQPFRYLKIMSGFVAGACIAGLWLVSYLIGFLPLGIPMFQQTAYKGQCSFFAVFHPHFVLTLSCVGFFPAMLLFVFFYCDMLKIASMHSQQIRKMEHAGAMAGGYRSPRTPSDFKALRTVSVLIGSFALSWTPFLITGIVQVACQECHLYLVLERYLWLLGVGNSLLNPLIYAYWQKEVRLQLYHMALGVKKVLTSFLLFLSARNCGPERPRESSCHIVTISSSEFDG

Cytochrome P450 2C9 = Cytochrome P450 2C9 (Homo sapiens, UniProt P11712); assay: Inhibition of CYP2C9 (unknown origin); format: ADME
Chain of Cytochrome P450 2C9 (P11712 whole entry): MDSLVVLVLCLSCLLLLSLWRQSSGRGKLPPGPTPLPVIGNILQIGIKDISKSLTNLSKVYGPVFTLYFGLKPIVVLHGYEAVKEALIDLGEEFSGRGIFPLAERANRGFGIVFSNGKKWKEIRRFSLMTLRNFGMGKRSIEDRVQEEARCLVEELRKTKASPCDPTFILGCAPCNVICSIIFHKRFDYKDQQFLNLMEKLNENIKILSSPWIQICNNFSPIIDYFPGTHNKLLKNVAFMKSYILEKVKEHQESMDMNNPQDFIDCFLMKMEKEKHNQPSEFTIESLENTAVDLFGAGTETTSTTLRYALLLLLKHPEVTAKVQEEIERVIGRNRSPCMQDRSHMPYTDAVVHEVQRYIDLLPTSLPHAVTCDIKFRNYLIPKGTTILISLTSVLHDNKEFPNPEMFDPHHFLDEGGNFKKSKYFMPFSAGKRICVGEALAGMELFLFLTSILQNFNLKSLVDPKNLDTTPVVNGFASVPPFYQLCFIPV

[2] = molecular target: T2, Glucose-dependent insulinotropic receptor (Rattus norvegicus) (UniProt Q7TQN8); assay: […] of rat GPR119 activity by homogeneous time resolved fluorescence cyclase (cAMP) assay relative to AR231453; format: functional
T2 sequence (whole entry): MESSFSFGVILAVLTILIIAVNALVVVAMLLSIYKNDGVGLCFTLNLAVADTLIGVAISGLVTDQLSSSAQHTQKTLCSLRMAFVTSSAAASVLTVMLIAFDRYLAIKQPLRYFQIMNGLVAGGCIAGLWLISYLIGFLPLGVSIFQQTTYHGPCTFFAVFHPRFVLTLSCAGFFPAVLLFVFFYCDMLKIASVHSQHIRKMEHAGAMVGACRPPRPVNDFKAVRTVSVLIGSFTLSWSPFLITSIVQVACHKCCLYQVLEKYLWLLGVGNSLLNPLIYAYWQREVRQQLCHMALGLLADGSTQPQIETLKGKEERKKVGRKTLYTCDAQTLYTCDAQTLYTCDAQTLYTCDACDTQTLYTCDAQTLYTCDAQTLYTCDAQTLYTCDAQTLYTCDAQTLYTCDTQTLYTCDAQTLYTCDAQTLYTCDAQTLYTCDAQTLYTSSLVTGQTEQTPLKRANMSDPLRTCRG

[3] = molecular target: T3, Glucose-dependent insulinotropic receptor (Homo sapiens, UniProt Q8TDV5); assay: […] of human GPR119 activity by homogeneous time resolved fluorescence cyclase (cAMP) assay; format: functional
T3 sequence (Q8TDV5 whole entry): T1 sequence (whole entry)

[4] = molecular target: T4, Glucose-dependent insulinotropic receptor (Rattus norvegicus, UniProt Q7TQN8); assay: […] of rat GPR119 activity by homogeneous time resolved fluorescence cyclase (cAMP) assay; format: functional
T4 sequence (Q7TQN8 whole entry): T2 sequence (whole entry)

Compound | Efficacy [1] | IC50 (Cytochrome P450 2C9) | Efficacy [2] | EC50 [3] | EC50 [4]
Cc1nc(S(C)(=O)=O)ccc1Oc1ncnc(OC2CCN(C(=O)OC3(C(F)(F)F)CCC3)CC2)c1F | 38% | – | 82% | 14.3 nM | 63.3 nM
Cc1nc(S(C)(=O)=O)ccc1Oc1ncnc(OC2CCN(C(=O)OC(C)(C)C)CC2)c1F | 81% | – | 97% | 7.91 nM | 49.6 nM
CCc1cnc(C(=O)N2CCC(Oc3ncnc(Oc4ccc(S(C)(=O)=O)nc4C)c3F)CC2)nc1 | 99% | – | 80% | 4.7 nM | 40.8 nM
CCC(F)(F)C(=O)N1CCC(Oc2ncnc(Oc3ccc(S(C)(=O)=O)nc3C)c2F)CC1 | 85% | – | 90% | 17.4 nM | 69.2 nM
Cc1nc(S(C)(=O)=O)ccc1Oc1ncnc(OC2CCN(C(=O)SC3CC3)CC2)c1F | 103% | – | 80% | 24.9 nM | 126 nM
Cc1nc(S(C)(=O)=O)ccc1Oc1ncnc(OC2CCN(C(=O)c3noc(C(C)C)n3)CC2)c1F | 72% | – | 81% | 21.2 nM | 176 nM
Cc1nc(S(C)(=O)=O)ccc1Oc1ncnc(OC2CCN(C(=O)O[C@H](C)C(F)(F)F)CC2)c1F | 56% | – | 85% | 9.2 nM | 110 nM
Cc1nc(S(C)(=O)=O)ccc1Oc1ncnc(OC2CCN(C(=O)SC3(C)CC3)CC2)c1F | 93% | – | 77% | 13.2 nM | 166 nM
Cc1nc(S(C)(=O)=O)ccc1Oc1ncnc(OC2CCN(C(=O)SC(C)(C)C)CC2)c1F | 87% | – | 76% | 4.83 nM | 30.7 nM
Cc1nc(S(C)(=O)=O)ccc1Oc1ncnc(OC2CCN(C(=O)OC3(C(F)(F)F)COC3)CC2)c1F | 66% | – | 84% | 29.3 nM | 342 nM
Cc1nc(S(C)(=O)=O)ccc1Oc1ncnc(OC2CCN(C(=O)C(F)(F)F)CC2)c1F | 52% | – | 76% | 151 nM | 880 nM
Cc1nc(S(C)(=O)=O)ccc1Oc1ncnc(OC2CCN(C(=O)C(C)(F)F)CC2)c1F | 76% | – | 87% | 37 nM | 239 nM
Cc1nc(S(C)(=O)=O)ccc1Oc1ncnc(OC2CCN(C(=O)C3(C)CC3)CC2)c1F | 72% | – | – | 761 nM | –
Cc1nc(S(C)(=O)=O)ccc1Oc1ncnc(OC2CCN(C(=O)c3noc(C(C)(C)F)n3)CC2)c1F | 69% | – | 74% | 14 nM | 103 nM
Cc1nc(S(C)(=O)=O)ccc1Oc1ncnc(OC2CCN(C(=O)C3(F)CCC3)CC2)c1F | 99% | – | 91% | 24.7 nM | 123 nM

Further lines, results first:

Efficacy [1] | IC50 (Cytochrome P450 2C9) | Efficacy [2] | EC50 [3] | EC50 [4] | Compound
75% | 5800 nM | 89% | – | – | COc1c(Nc2ccc(S(C)(=O)=O)nc2C)ncnc1OC1CCN(C(=O)OC(C)C)CC1 [ADP-597]
59% | – | 79% | 196 nM | 1520 nM | Cc1nc(S(C)(=O)=O)ccc1Oc1ncnc(OC2CCN(C(=O)O[C@H](C)CF)CC2)c1F
65% | – | 81% | 13.6 nM | 167 nM | Cc1nc(S(C)(=O)=O)ccc1Oc1ncnc(OC2CCN(C(=O)OC3CCC3)CC2)c1F
65% | – | 83% | 22 nM | 333 nM | CCC1(OC(=O)N2CCC(Oc3ncnc(Oc4ccc(S(C)(=O)=O)nc4C)c3F)CC2)CC1
95% | – | 81% | 6.8 nM | 41.3 nM | Cc1nc(S(C)(=O)=O)ccc1Oc1ncnc(OC2CCN(C(=O)SC(C)C)CC2)c1F
83% | – | 77% | 6.12 nM | 30.9 nM | Cc1nc(S(C)(=O)=O)ccc1Oc1ncnc(OC2CCN(C(=O)c3ncc(Cl)cn3)CC2)c1F
87% | – | 83% | 72.8 nM | 407 nM | Cc1nc(S(C)(=O)=O)ccc1Oc1ncnc(OC2CCN(C(=O)C3CCCC3)CC2)c1F
78% | – | 80% | 9.86 nM | 109 nM | Cc1nc(S(C)(=O)=O)ccc1Oc1ncnc(OC2CCN(C(=O)O[C@@H](C)C(F)(F)F)CC2)c1F
75% | > 50000 nM | 77% | 21 nM | 142 nM | Cc1nc(S(C)(=O)=O)ccc1Oc1ncnc(OC2CCN(C(=O)OC(C)C)CC2)c1F
72% | – | 84% | 186 nM | 1680 nM | Cc1nc(S(C)(=O)=O)ccc1Oc1ncnc(OC2CCN(C(=O)O[C@@H](C)CF)CC2)c1F
74% | – | 84% | 43.4 nM | 606 nM | Cc1nc(S(C)(=O)=O)ccc1Oc1ncnc(OC2CCN(C(=O)c3nc(C(C)(C)F)no3)CC2)c1F
94% | – | 81% | 8.51 nM | 77.4 nM | Cc1nc(S(C)(=O)=O)ccc1Oc1ncnc(OC2CCN(C(=O)SC3CCC3)CC2)c1F
58% | – | 66% | 326 nM | 2500 nM | Cc1nc(S(C)(=O)=O)ccc1Oc1ncnc(OC2CCN(C(=O)OC3COC3)CC2)c1F
66% | – | 74% | 76.3 nM | 296 nM | Cc1nc(S(C)(=O)=O)ccc1Oc1ncnc(OC2CCN(C(=O)C(C)(C)F)CC2)c1F
– | – | 49% | – | 48.8 nM | Cc1nc(S(C)(=O)=O)ccc1Oc1ncnc(OC2CCN(C(=S)OC3(C)CC3)CC2)c1F
-32% | – | 47% | 69.9 nM | 1050 nM | Cc1nc(S(C)(=O)=O)ccc1Oc1ncnc(OC2CCN(C(=S)OC(C)C)CC2)c1F
74% | – | 95% | 19.9 nM | 138 nM | Cc1nc(S(C)(=O)=O)ccc1Oc1ncnc(OC2CCN(C(=O)OC(C)(C)CF)CC2)c1F
36% | – | 79% | 6.53 nM | 47.2 nM | Cc1nc(S(C)(=O)=O)ccc1Oc1ncnc(OC2CCN(C(=O)OC(C)(C)C(F)(F)F)CC2)c1F
90% | – | 97% | 92.9 nM | 1320 nM | Cc1nc(S(C)(=O)=O)ccc1Oc1ncnc(OC2CCN(C(=O)OC(C)(C)C#N)CC2)c1F
77% | 5500 nM | 85% | 132 nM | 265 nM | Cc1nc(S(C)(=O)=O)ccc1Nc1ncnc(OC2CCN(C(=O)OC(C)C)CC2)c1F
